Columns and labels:
[1] = test system: colorectal carcinoma (HT-29) cells; assay: Antiproliferative MTT assay, HT-29; type: cell-based, human; conditions: for IC50: Homo sapiens, HT-29, 72 h, 72 h incubation, MTT, mean ± SD
Procedure, shortened: (§1)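 Growth inhibition is measured by MTT after cells are exposed for 72 h to compounds spanning 0.01 to 100 µM. IC50 is derived from dose–response curves by linear regression, with quadruplicate wells in two independent runs.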

[2] = test system: normal skin fibroblasts (HFF-1); assay: Cytotoxicity MTT assay, normal skin fibroblasts; type: cell-based, human; conditions: Homo sapiens, HFF-1, 72 h, 72 h incubation, mean ± SD
Procedure, shortened: as §1

[3] = test system: breast adenocarcinoma (MCF7) cells; assay: Antiproliferative MTT assay, MCF-7; type: cell-based, human; conditions: for IC50: Homo sapiens, MCF7, 72 h incubation, MTT, mean ± SD; for SI (MCF-7): SI = [IC50 HFF]/[IC50 MCF-7]
Procedure, shortened: as §1

[4] = Metabolic stability in mouse liver microsomes; type: in vitro ADME; conditions: for Clearance Class.: mouse liver microsomes; for Clearance Values (CL): predicted in vivo hepatic clearance from mouse liver microsome t1/2, 1 µM compound
Text: Mouse liver microsomes were obtained from Corning Life Sciences (Corning, NY, USA). DMSO, nicotinamide adenine dinucleotide phosphate (NADP), glucose-6-phosphate, glucose-6-phosphate dehydrogenase, magnesium chloride, propranolol, caffeine, diclofenac, and phosphate-buffered saline (PBS) were purchased from Sigma (St. Louis, MO, USA). Acetonitrile (ACN) and methanol (MeOH) were obtained from Merck (Darmstadt, Germany). Testosterone was purchased from Steraloids (Newport, RI, USA). Metabolic stability was assessed in mouse liver microsomes. Compounds (final concentration of 1 µM, 0.03% DMSO v/v) were incubated in duplicate in phosphate buffer (50 mM, pH 7.4) at 37 °C together with mouse liver microsomes in the absence and presence of the NADPH cofactor (0.5 mM nicotinamide adenine dinucleotide phosphate, 5 mM glucose-6-phosphate, 1.5 U/mL glucose-6-phosphate dehydrogenase, and 0.5 mM magnesium chloride). Incubation and sampling were performed on a Freedom EVO 200 (Tecan, Männedorf, CH, Switzerland) at […], 10, 20, 30, 45, and 60 min. The reaction was quenched using 3 volumes of a mixture of ACN/MeOH (2:1) containing internal standard (diclofenac), centrifuged, and the supernatants were analyzed using LC-MS/MS. The metabolic activity of the microsomes was verified via simultaneous analysis of several controls including testosterone, propranolol, and caffeine. The in vitro half-life (t1/2) was calculated using GraphPad Prism (v9.0 software) non-linear regression of % of parent compound remaining versus time. In vitro clearance, expressed as µL/min/mg, was estimated from the in vitro half-life (t1/2) and normalized for the protein amount in the incubation mixture, assuming 52.5 mg of protein per gram of liver and using constant values for mouse liver weight/body weight [87.5 g/kg] and mouse liver blood flow (LBF) [131 mL/min/kg].
(§2) All samples were quantified using tandem mass spectrometry coupled to liquid chromatography. Samples were analyzed on a Sciex API4000 Triple Quadrupole Mass Spectrometer (Sciex, Division of MDS Inc., Toronto, Canada) coupled to a Shimadzu Nexera X2 UHPLC frontend (Kyoto, Japan). Samples were injected onto a UHPLC column (HALO2 C18, 2.1 × 20 mm, 2 µm or Luna Omega 1.6 µm Polar C18 100A, 30 × 2.1 mm) and eluted with a gradient at 50 °C. The mobile phase was composed of acetonitrile/water mixture (9/1, with 0.1% formic acid) and 0.1% formic acid in deionized water. The flow rate was 0.7 mL/min under gradient conditions, leading to a total run time of 1.5–2 min. A positive ion mode with turbo spray, an ion source temperature of 550 °C, and a dwell time of 150 ms were utilized for mass spectrometric detection. Quantitation was performed using multiple reaction monitoring (MRM) at the specific transitions for each compound.

[5] = test system: pancreatic ductal adenocarcinoma (CFPAC-1) cells; assay: Antiproliferative MTT assay, CFPAC-1; type: cell-based, human; conditions: for IC50: Homo sapiens, CFPAC-1, 72 h, 72 h incubation, MTT, mean ± SD; for SI (CFPAC-1): SI = [IC50 HFF]/[IC50 CFPAC-1]
Procedure, shortened: as §1

[6] = test system: hepatocellular carcinoma (HepG2) cells; assay: Antiproliferative MTT assay, HepG2; type: cell-based, human; conditions: for IC50: Homo sapiens, HepG2, 72 h, 72 h incubation, MTT, mean ± SD; for SI (HepG2): SI = [IC50 HFF]/[IC50 HepG2]
Procedure, shortened: as §1

[7] = test system: MDCKII-MDR1 cells (P-glycoprotein); assay: MDCKII-MDR1 permeability assay; type: in vitro ADME, canine cells with over-expressed human MDR1 gene; conditions: for Permeability: permeability class
Procedure: (§3) MDCKII-hMDR1 cells were obtained from Solvo Biotechnology, Hungary. DMEM, fetal bovine serum, Glutamax-100, Antibiotic/Antimycotic, DMSO, Dulbecco’s phosphate-buffered saline, and MEM Non-essential amino acids were purchased from Sigma (St. Louis, MO, USA). Bi-directional permeability and P-glycoprotein substrate assessments were carried out in Madin-Darby canine epithelial cells with the over-expressed human MDR1 gene (MDCKII-MDR1), coding for P-glycoprotein. Experimental procedures, as well as cell culture conditions, were the same as previously described. Briefly, compounds (10 µM, 1% DMSO v/v) in duplicate were incubated at 37 °C for 60 min with cell monolayer on 24-well Millicell inserts (Millipore, Burlington, MA, USA) with and without the P-glycoprotein inhibitor Elacridar (2 µM, International Laboratory, San Francisco, CA, USA). The inhibition of P-glycoprotein was verified by amprenavir (Moravek Biochemicals Inc, Brea, CA, USA) and monolayer integrity using Lucifer yellow (Sigma, St. Louis, MO, USA). LC-MS/MS measured compound concentrations and Lucifer yellow was measured on an Infinite F500 (Tecan, Männedorf, CH, Switzerland) using excitation of 485 nm and emission of 530 nm.
as §2

[8] = test system: P-glycoprotein (human MDR1); assay: MDCKII-MDR1 permeability assay; type: in vitro ADME, canine cells with over-expressed human MDR1 gene; conditions: dog, MDCK-MDR1; for Papp A→B at 60 min, 10 µM / Papp B→A at 60 min, 10 µM: 37 °C; for efflux ratio at 60 min, 10 µM: <2 no efflux, >2 active efflux
Procedure: as §3, §2

SMILES: OC(Cn1cc(Cn2cnc3c(Cl)ncnc32)nn1)c1ccc(C(F)(F)F)cc1 (stereo not drawn) [Compound 40b, 6-Chloro-9-((1-(2-hydroxy-2-(4-(trifluoromethyl)phenyl)ethyl)-1H-1,2,3-triazol-4-yl)methyl)-9H-purine]
- IC50 [1]: 14 ± 8.1 µM
- SI (HT-29) ([1]; SI = [IC50 HFF]/[IC50 HT-29]): 0.6
- IC50 [2]: 8 ± 4.8 µM
- IC50 [3]: 28 ± 6.7 µM
- Clearance Class. [4]: low clearance
- IC50 [5]: 25 ± 6.4 µM
- IC50 [6]: 15 ± 9 µM
- SI (HepG2) [6]: 0.5
- Efflux Ratio ([7]; <2 no efflux, >2 active efflux): higher efflux values

SMILES: OCC(c1ccc(Br)cc1)n1cc(Cn2ccc3c(Cl)ncnc32)nn1 (stereo not drawn) [Compound 44a, 4-Chloro-7-((1-(2-hydroxy-1-(4-bromophenyl)ethyl)-1H-1,2,3-triazol-4-yl)methyl)-7H-pyrrolo[2,3-d]pyrimidine]
- IC50 [1]: 87 ± 9.9 µM
- IC50 [2]: 79 ± 17.6 µM
- IC50 [3]: 79 ± 17.6 µM
- SI (MCF-7) [3]: 1.0
- Clearance Class. [4]: MODERATE (30–70% moderate)
- Clearance Values (CL) [4]: 56%
- IC50 [5]: 69 ± 2 µM
- SI (CFPAC-1) [5]: 1.1
- IC50 [6]: 83 ± 28.3 µM
- Papp A→B at 60 min, 10 µM [8]: 109 nm/s
- Papp B→A at 60 min, 10 µM [8]: 674 nm/s
- efflux ratio at 60 min, 10 µM [8]: 6.2
- Permeability [7]: HIGH

SMILES: OC(Cn1cc(Cn2ccc3c(Cl)ncnc32)nn1)c1ccc(Br)cc1 (stereo not drawn) [Compound 44b, 4-Chloro-7-((1-(2-hydroxy-2-(4-bromophenyl)ethyl)-1H-1,2,3-triazol-4-yl)methyl)-7H-pyrrolo[2,3-d]pyrimidine]
- IC50 [1]: 30 ± 0.7 µM
- IC50 [2]: 27 ± 11.9 µM
- IC50 [3]: 25 ± 6.4 µM
- SI (MCF-7) [3]: 1.1
- Clearance Values (CL) [4]: 84%
- IC50 [5]: 15 ± 0.2 µM
- SI (CFPAC-1) [5]: 1.8
- IC50 [6]: 32 ± 3.2 µM
- Papp A→B at 60 min, 10 µM [8]: 253 nm/s
- Papp B→A at 60 min, 10 µM [8]: 627 nm/s
- efflux ratio at 60 min, 10 µM [8]: 2.5
- Permeability [7]: highest permeability and HIGH

SMILES: OC(Cn1cc(Cn2ccc3c(Cl)ncnc32)nn1)c1ccc(C(F)(F)F)cc1 (stereo not drawn) [Compound 45b, 4-Chloro-7-((1-(2-hydroxy-2-(4-(trifluoromethyl)phenyl)ethyl)-1H-1,2,3-triazol-4-yl)methyl)-7H-pyrrolo[2,3-d]pyrimidine]
- IC50 [1]: 19 ± 7.5 µM
- IC50 [2]: 12 ± 3.1 µM
- IC50 [3]: 21 ± 1.6 µM
- SI (MCF-7) [3]: 0.6
- Clearance Values (CL) [4]: 90%
- IC50 [5]: 13 ± 2.2 µM
- SI (CFPAC-1) [5]: 0.9
- IC50 [6]: 32 ± 16.1 µM
- Papp A→B at 60 min, 10 µM [8]: 265 nm/s
- Papp B→A at 60 min, 10 µM [8]: 907 nm/s
- efflux ratio at 60 min, 10 µM [8]: 3.4
- Permeability [7]: highest permeability and HIGH

SMILES: OCC(c1ccc(Br)cc1)n1cc(Cn2cnc3c(Cl)nccc32)nn1 (stereo not drawn) [Compound 49a, 4-Chloro-1-((1-(2-hydroxy-1-(4-bromophenyl)ethyl)-1H-1,2,3-triazol-4-yl)methyl)-1H-imidazo[4,5-c]pyridine]
- IC50 [1]: 77 ± 1.1 µM
- IC50 [2]: 90 ± 4.04 µM
- IC50 [3]: 77 ± 3 µM
- Clearance Class. [4]: LOW (<30% low)
- IC50 [5]: 77 ± 0.5 µM
- IC50 [6]: 66 ± 22.8 µM
- SI (HepG2) [6]: 1.4
- Papp A→B at 60 min, 10 µM [8]: ≤ 20 nm/s
- Papp B→A at 60 min, 10 µM [8]: 411 nm/s
- efflux ratio at 60 min, 10 µM [8]: 41.4
- Papp at 60 min, 10 µM ([8]; permeability class): ≤ 20 nm/s
